Assay results from patent US20060247156A1, “Use of neuropeptides for ligament, cartilage, and bone healing” (priority 2004, published 2006).
Entries after “also recorded” stand apart in the source; their conditions may differ.

Tested on: ruptured MCL of a surgical sympathectomy (SS) rat
Assay: Local neuropeptide delivery to ruptured MCL of surgical sympathectomy (SS) rats: mechanical testing, histomorphology
Format: in vivo
Details: for failure force / ultimate stress / mechanical strength of healing MCL (in words): two weeks of healing; for mechanical strength of healing MCL (in words): local delivery
Source text: Surgical Procedure: Thirteen female Wistar rats (306 g to 339 g) were divided into two groups: surgical sympathectomy (SS) or sham control. All rats were anesthetized with isofluorane as described in Example 1. A transperitoneal approach was used. The lower abdomen was shaved and prepared for surgery. A skin incision approximately 25 mm long was made. Fascia and abdominal muscle were incised. Abdominal organs were displaced. With the aid of a dissecting microscope, fascia surrounding the deep muscle tissue was separated (with minimal disruption to the muscle tissue) to expose the post-ganglionic sympathetic nerves. The L1-4 nerves were isolated and transected (with removal of a 5 mm segment of the nerves) in the surgical sympathectomy group only. In both groups, the deep muscle tissue was returned to its initial position and abdominal organs were replaced. Abdominal muscles and skin were closed in two layers with a 3-0 or 4-0 continuous dexon suture. Rats from each group (n=4 SS; n=3 controls) then underwent a complete surgical rupture of the MCL to one knee. The contra-lateral knee underwent sham surgery. […] Two weeks post-surgery, rats were sacrificed using an overdose of pentobarbitone (150 mg/kg).
Local delivery of NPs and NP inhibitors is important to identify the specific roles of individual NPs on healing tissues. An animal model for the local delivery of NPs has been developed and is presented in this Example. Briefly, NP infused mini-osmotic pumps were implanted subcutaneously into the back of rats. A small catheter running from the pump to an intramuscular space above the MCL was secured to the rat.
To test whether autonomic NPs improve healing in SS-ruptured MCLs, three female Wistar rats (193 g to 204 g) were given VIP locally to the MCL. Vasoactive intestinal peptide (75 pg/μl) was infused into a mini-osmotic pump and was delivered to a ruptured MCL of a surgical sympathectomy (SS) rat (see surgical procedure above). Within minutes of surgical intervention, all rats recovered and had normal movement and behavior (grooming, feeding, etc.). […] The results are presented graphically in FIG. 6.
Animal Model and Surgery: Thirty-seven female Wistar rats (199-298 g) were divided into five groups. […] Rats that were designated to receive SP or CGRP underwent bilateral femoral nerve transection (see previous examples). Rats that were designated to receive NPY, VIP, or a combination of NPY and VIP underwent bilateral surgical sympathectomy. Following surgical nerve transection, each rat also underwent bilateral MCL rupture. Neuropeptides were then delivered ruptured MCLs unilaterally. Neuropeptide infused mini-osmotic pumps (Alzet Corp.) were implanted subcutaneously into the back of each rat. A small catheter running from the pump was run to an intramuscular space above the MCL and was secured. To ensure that neuropeptides are delivered directly to the MCL, rhodamine labeled SP was delivered via a catheter to the MCL (n=2 rats).
Within minutes of surgical intervention, all rats recovered and had normal movement and behavior (grooming, feeding, etc.). To test whether autonomic NPs improve healing in SS ruptured MCLs, seven rats were given VIP, seven rats were given NPY, and seven rats were given a combination of VIP and NPY. […]
Mechanical Testing: Mechanical testing was performed as described in the preceding examples. Briefly, animal hind limbs from all groups (n=4 for all groups) were disarticulated at the hip joint and stored at −80° C. until testing. On the day of testing, MCLs including intact femoral and tibial bone sections were excised for ex vivo testing. Ligament thickness and width was measured optically, and MCL area was estimated with elliptical geometry. For strain measurements, optical markers were placed onto the ligament tissue near the insertion sites. […]

[1] = Example 3: VIP 75 pg/μl via mini-osmotic pump to ruptured MCL of SS rat
[2] = Example 6: SS rats, bilateral MCL rupture, mini-osmotic pump (NPY 65 pg/100 μl; VIP 100 pg/100 μl; or both)

vasoactive intestinal peptide [VIP] showed a failure force [1] of 44.23 N, a ultimate stress [1] of 29.63 MPa and a failure force [2] of 44.2±3.1 N. For the same substance, the ultimate stress [2] was 29.6±10.0 MPa, the “histomorphology (H&E) of healing MCL” value (SS rats, VIP or NPY, two weeks) was “more aligned” and the “mechanical strength of healing MCL (in words)” value (SS rats) was “greater than the strength of uninjured MCLs; also recorded: completely reversed the functional deficits”. The “mechanical strength of healing MCL (in words)” value (SS rats, listed as Vasoactive intestinal peptide) was “greater strength than intact, normally innervated MCLs”.
